In ChEMBL document CHEMBL1201862, “PubChem BioAssay data set” (2004):
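Compound exposure: 48 hours, 5 concentrations, 96-well plates. GI50 marks 50% less growth.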 Active and inactive are the calls of the source. Rule as the data show it: active = GI50 up to about 1.1 µM and inactive = higher.

Tests used:
Assay in all cases: NCI-60 cell line screen, 48 h
786-0 = test system: 786-0
A549 = test system: A549
ACHN = test system: ACHN
CAKI-1 = test system: CAKI-1
CCRF-CEM = test system: CCRF-CEM
DU-145 = test system: DU-145
HCC 2998 = test system: HCC 2998
HOP-92 = test system: HOP-92
K562 = test system: K562
MDA-MB-435 = test system: MDA-MB-435
MDA-N = test system: MDA-N
NCI-H460 = test system: NCI-H460
NCI-H522 = test system: NCI-H522
RPMI-8226 = test system: RPMI-8226
RXF 393 = test system: RXF 393
SF-295 = test system: SF-295
SK-OV-3 = test system: SK-OV-3
SNB-75 = test system: SNB-75
TK-10 = test system: TK-10
A498 = test system: A498

Compound | GI50 (786-0) | GI50 (A549) | GI50 (ACHN) | GI50 (CAKI-1) | GI50 (CCRF-CEM) | GI50 (DU-145) | GI50 (HCC 2998) | GI50 (HOP-92) | GI50 (K562) | GI50 (MDA-MB-435) | GI50 (MDA-N) | GI50 (NCI-H460) | GI50 (NCI-H522) | GI50 (RPMI-8226) | GI50 (RXF 393) | GI50 (SF-295) | GI50 (SK-OV-3) | GI50 (SNB-75) | GI50 (TK-10) | GI50 (A498)
C(=C\c1cccs1)/c1cccc(/C=C/c2cccs2)n1 | 35.3 µM (inactive) | 60.7 µM (inactive) | 8.11 µM (inactive) | > 100 µM (inactive) | > 100 µM (inactive) | > 100 µM (inactive) | 56.9 µM (inactive) | > 100 µM (inactive) | > 100 µM (inactive) | > 100 µM (inactive) | > 100 µM (inactive) | 36.4 µM (inactive) | 1.53 µM (inactive) | > 100 µM (inactive) | > 100 µM (inactive) | > 100 µM (inactive) | > 100 µM (inactive) | 19.3 µM (inactive) | 34.9 µM (inactive) | 
O=C(O)c1cc(-c2ccc3c(O)ccc(O)c3c2)ccc1O | 16.6 µM (inactive) | 33.5 µM (inactive) | 19.3 µM (inactive) | 16.6 µM (inactive) | 1.87 µM (inactive) | 24 µM (inactive) | 16.4 µM (inactive) |  | 5.14 µM (inactive) | 17.5 µM (inactive) | 16.7 µM (inactive) | 20.5 µM (inactive) | 15.3 µM (inactive) | 4.78 µM (inactive) | 12.9 µM (inactive) | 18.2 µM (inactive) | > 10 µM (inactive) | 17 µM (inactive) | 20.3 µM (inactive) | 17.4 µM (inactive)
CC(=O)Oc1ccc2cc(Oc3ccc(Cl)cc3)c(=O)oc2c1 | 36.1 µM (inactive) | 21.6 µM (inactive) | 38.8 µM (inactive) | 53 µM (inactive) |  | 53.6 µM (inactive) | 35.8 µM (inactive) | 38.1 µM (inactive) |  |  | 25.6 µM (inactive) | 40.7 µM (inactive) | 22.3 µM (inactive) | 34.8 µM (inactive) | 46.9 µM (inactive) | 33.6 µM (inactive) |  | 75.5 µM (inactive) | > 100 µM (inactive) | 25.2 µM (inactive)
CC(C)NC(=O)OCc1c(COC(=O)NC(C)C)c(-c2ccc(Cl)c(Cl)c2)n2c1CCC2 | 20.7 µM (inactive) | 21.1 µM (inactive) | 18.7 µM (inactive) | 20.9 µM (inactive) | 26.5 µM (inactive) | > 100 µM (inactive) | 43.6 µM (inactive) | 29.4 µM (inactive) | 46.1 µM (inactive) | > 100 µM (inactive) |  | 36.6 µM (inactive) | > 62.4 µM (inactive) | 17.9 µM (inactive) | 31.3 µM (inactive) | 48.1 µM (inactive) | 61.4 µM (inactive) | 39.4 µM (inactive) | 41.7 µM (inactive) | 34 µM (inactive)
Cc1cc(NS(=O)(=O)c2ccc(NC(=O)c3cccc4c(NNc5ccc(S(=O)(=O)N=C(N)N)cc5)c5ccccc5nc34)cc2)no1 | > 100 µM (inactive) | > 100 µM (inactive) | 50.4 µM (inactive) | > 100 µM (inactive) | 29 µM (inactive) | 51.5 µM (inactive) | 30.5 µM (inactive) | 17.3 µM (inactive) | 36.8 µM (inactive) | 92.9 µM (inactive) | 68.5 µM (inactive) | 51.9 µM (inactive) | 29 µM (inactive) | 82 µM (inactive) | 46.8 µM (inactive) | 69.7 µM (inactive) | 54.2 µM (inactive) | 28.2 µM (inactive) | > 100 µM (inactive) | 
CC(=O)N1c2ccccc2C2=NN(C)C(=N)SC21 (stereo not given) | > 100 µM (inactive) | > 100 µM (inactive) | > 100 µM (inactive) |  | > 100 µM (inactive) | > 100 µM (inactive) | > 100 µM (inactive) |  | > 100 µM (inactive) | 89.3 µM (inactive) | > 100 µM (inactive) | > 100 µM (inactive) | 67.8 µM (inactive) | > 100 µM (inactive) |  | 50.4 µM (inactive) |  | 56 µM (inactive) | > 100 µM (inactive) | 66.7 µM (inactive)
CCCCCCc1cc2cc(C(=O)Nc3cccc(F)c3)c(=N)oc2cc1O | 3.28 µM (inactive) | 3.27 µM (inactive) | 3.16 µM (inactive) | 2.9 µM (inactive) | 1.63 µM (inactive) | 3.56 µM (inactive) | 3.19 µM (inactive) |  | 1.15 µM (inactive) | 2.4 µM (inactive) | 3.14 µM (inactive) | 3.19 µM (inactive) | 1.59 µM (inactive) | 1.62 µM (inactive) |  | 3.2 µM (inactive) | 3.37 µM (inactive) |  |  | 3.02 µM (inactive)
CCN(CC)c1ccc2cc(-c3csc(C)n3)c(=O)oc2c1 | 39.2 µM (inactive) | > 100 µM (inactive) | 70.3 µM (inactive) | > 100 µM (inactive) | > 100 µM (inactive) | > 100 µM (inactive) | 58.5 µM (inactive) | 27.4 µM (inactive) | > 100 µM (inactive) | 42.9 µM (inactive) | 0.719 µM (active) | > 100 µM (inactive) |  | > 100 µM (inactive) | 37.3 µM (inactive) | 47 µM (inactive) | > 100 µM (inactive) | 0.0585 µM (active) | 54.7 µM (inactive) | 
Cc1nn(C(=O)c2ccccc2O)c2c1C(c1ccc3ccccc3c1O)SC(=N)N2 (stereo not given) | 6.47 µM (inactive) | 4.91 µM (inactive) | 3.8 µM (inactive) | 3.52 µM (inactive) | 3.76 µM (inactive) |  |  | 0.378 µM (active) | 3.6 µM (inactive) | 5.93 µM (inactive) | 3.44 µM (inactive) | 5.53 µM (inactive) |  | 4.34 µM (inactive) | 6.56 µM (inactive) | > 10 µM (inactive) | 6.3 µM (inactive) | 2.85 µM (inactive) | 8.75 µM (inactive) | 6.47 µM (inactive)
CC(=O)OCc1cncn1S(=O)(=O)c1ccc(C)cc1 | > 100 µM (inactive) | > 100 µM (inactive) | > 100 µM (inactive) | > 100 µM (inactive) | 30.4 µM (inactive) | > 100 µM (inactive) | > 62.4 µM (inactive) | > 100 µM (inactive) | 5.37 µM (inactive) | 10.4 µM (inactive) | 9.46 µM (inactive) | 29.9 µM (inactive) | 71.9 µM (inactive) | 35 µM (inactive) | > 100 µM (inactive) | > 100 µM (inactive) | > 100 µM (inactive) | > 100 µM (inactive) | > 100 µM (inactive) | 
O=C(CBr)N1CCC2(CC1)SSC1(CCN(C(=O)CBr)CC1)S2 | 0.614 µM (active) | 1.98 µM (inactive) | 1.54 µM (inactive) |  | 0.15 µM (active) |  |  | 2.1 µM (inactive) | 0.647 µM (active) | 2.12 µM (inactive) | 1.31 µM (inactive) | 1.81 µM (inactive) |  | 0.356 µM (active) |  | 1.94 µM (inactive) | 1.41 µM (inactive) | 2.01 µM (inactive) |  | 
COc1cc(C=O)cc(/C=N/n2c3ccccc3c3ccccc32)c1O | 11.9 µM (inactive) | > 100 µM (inactive) | 6.12 µM (inactive) | 31.8 µM (inactive) | 4.09 µM (inactive) | > 100 µM (inactive) | 19.3 µM (inactive) | 2.91 µM (inactive) | 12 µM (inactive) | 4.05 µM (inactive) |  | 30.5 µM (inactive) | 33.6 µM (inactive) | 5.01 µM (inactive) | 25 µM (inactive) | 3.17 µM (inactive) | 6.76 µM (inactive) | 2.79 µM (inactive) | 36.9 µM (inactive) | 20.7 µM (inactive)
Cc1cc(Cc2cc(C)c(NC(=O)C(=O)C3CCC4=C(SC5C=CC=CC5N4)C3=O)c(C(C)C)c2)cc(C(C)C)c1NC(=O)C(=O)C1CCC2=C(SC3C=CC=CC3N2)C1=O (stereo not given) | > 100 µM (inactive) | 64 µM (inactive) | 62.4 µM (inactive) | 53.6 µM (inactive) | 46.5 µM (inactive) | > 100 µM (inactive) | 30.5 µM (inactive) | > 100 µM (inactive) | 55.7 µM (inactive) | > 100 µM (inactive) |  | 53.1 µM (inactive) | 19.9 µM (inactive) | 37.4 µM (inactive) | 44 µM (inactive) | 69.7 µM (inactive) | > 100 µM (inactive) | 94.6 µM (inactive) | > 100 µM (inactive) | > 100 µM (inactive)
C=C(C)CNC(=S)N(N)c1ccc2ccccc2c1 | > 100 µM (inactive) | > 100 µM (inactive) | 34.5 µM (inactive) |  | 95.3 µM (inactive) | > 100 µM (inactive) | 47.3 µM (inactive) | > 100 µM (inactive) | 40.4 µM (inactive) | 72.3 µM (inactive) | > 100 µM (inactive) | > 100 µM (inactive) | 46.6 µM (inactive) | > 100 µM (inactive) | > 100 µM (inactive) | 94.2 µM (inactive) | > 100 µM (inactive) | > 100 µM (inactive) | 23.6 µM (inactive) | 
COC1OC(COC(=O)NCCCCC(=O)C(F)(F)F)C(O)C(O)C1O (stereo not given) | > 100 µM (inactive) | > 100 µM (inactive) | > 100 µM (inactive) | > 100 µM (inactive) | > 100 µM (inactive) | > 100 µM (inactive) | > 100 µM (inactive) | > 100 µM (inactive) | > 100 µM (inactive) | > 100 µM (inactive) | > 100 µM (inactive) | > 100 µM (inactive) |  | > 100 µM (inactive) | > 100 µM (inactive) | > 100 µM (inactive) | > 100 µM (inactive) | > 100 µM (inactive) | > 100 µM (inactive) | 
